ChEMBL document CHEMBL5209573, “Fluo-8 based assay for SLC24A2 using HEK293 SLC24A2 JumpIn OE cells” (2022)

Biological target: Sodium/potassium/calcium exchanger 2 (Homo sapiens, UniProt Q9UI40)
Experiment: Substrate uptake by the Sodium/Potassium/Calcium Exchanger 2 (NCKX2, SLC24A2) as assessed by Screen Questtrade mark Fluo-8 NW calcium assay kit in HEK-293 JumpIN-SLC24A2 cells (PubChem AID: 1794815)
Assay type: functional, cell-based, HEK293

Chain of Sodium/potassium/calcium exchanger 2 (Q9UI40 whole entry): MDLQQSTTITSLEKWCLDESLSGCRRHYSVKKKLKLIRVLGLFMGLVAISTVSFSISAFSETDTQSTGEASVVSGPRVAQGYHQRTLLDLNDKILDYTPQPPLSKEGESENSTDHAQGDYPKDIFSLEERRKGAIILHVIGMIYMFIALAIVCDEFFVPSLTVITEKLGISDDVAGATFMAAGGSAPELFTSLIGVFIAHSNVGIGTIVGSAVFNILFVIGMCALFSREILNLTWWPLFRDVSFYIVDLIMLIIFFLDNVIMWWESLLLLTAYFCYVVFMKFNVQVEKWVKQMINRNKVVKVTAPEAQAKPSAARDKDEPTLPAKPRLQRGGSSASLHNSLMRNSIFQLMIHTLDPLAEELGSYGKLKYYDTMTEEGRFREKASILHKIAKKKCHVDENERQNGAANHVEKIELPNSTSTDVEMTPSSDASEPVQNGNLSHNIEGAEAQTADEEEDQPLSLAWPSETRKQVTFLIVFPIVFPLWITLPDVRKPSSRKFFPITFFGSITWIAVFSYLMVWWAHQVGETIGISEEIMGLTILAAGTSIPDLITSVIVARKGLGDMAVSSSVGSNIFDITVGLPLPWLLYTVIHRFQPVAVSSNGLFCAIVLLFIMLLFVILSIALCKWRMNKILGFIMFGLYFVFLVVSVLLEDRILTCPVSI

[Cl-].[K+] [POTASSIUM CHLORIDE]
EC50: 280 mM
